In PubChem BioAssay (NCI):
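Briefly, cells in 96-well plates were exposed to five compound concentrations for 48 h, and endpoints were estimated by linear interpolation. TGI marks complete inhibition of growth.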

Assays:
Assay in all cases: growth of human tumour cells (NCI), 48 h
786-0 renal = tested on: 786-0 renal
A498 renal = tested on: A498 renal
A549 NSCLC = tested on: A549 NSCLC
ACHN renal = tested on: ACHN renal
CAKI-1 renal = tested on: CAKI-1 renal
CCRF-CEM leukemia = tested on: CCRF-CEM leukemia
COLO 205 colon = tested on: COLO 205 colon
DU-145 prostate = tested on: DU-145 prostate
EKVX NSCLC = tested on: EKVX NSCLC
HCC-2998 colon = tested on: HCC-2998 colon
HCT-116 colon = tested on: HCT-116 colon
HCT-15 colon = tested on: HCT-15 colon
HL-60(TB) leukemia = tested on: HL-60(TB) leukemia
HOP-62 NSCLC = tested on: HOP-62 NSCLC
HOP-92 NSCLC = tested on: HOP-92 NSCLC
HS 578T breast = tested on: HS 578T breast
HT29 colon = tested on: HT29 colon
IGROV1 ovarian = tested on: IGROV1 ovarian
K-562 leukemia = tested on: K-562 leukemia
KM12 colon = tested on: KM12 colon
LOX IMVI melanoma = tested on: LOX IMVI melanoma
M14 melanoma = tested on: M14 melanoma
MALME-3M melanoma = tested on: MALME-3M melanoma
MCF7 breast = tested on: MCF7 breast
MDA-MB-231 breast = tested on: MDA-MB-231 breast
MDA-MB-435 = tested on: MDA-MB-435
MDA-N = tested on: MDA-N
MOLT-4 leukemia = tested on: MOLT-4 leukemia
NCI-H226 lung = tested on: NCI-H226 lung
NCI-H23 lung = tested on: NCI-H23 lung
NCI-H460 lung = tested on: NCI-H460 lung
NCI-H522 lung = tested on: NCI-H522 lung
NCI/ADR-RES ovarian = tested on: NCI/ADR-RES ovarian
OVCAR-3 ovarian = tested on: OVCAR-3 ovarian
OVCAR-4 ovarian = tested on: OVCAR-4 ovarian
OVCAR-5 ovarian = tested on: OVCAR-5 ovarian
OVCAR-8 ovarian = tested on: OVCAR-8 ovarian
PC-3 prostate = tested on: PC-3 prostate
RXF 393 renal = tested on: RXF 393 renal
SF-268 CNS = tested on: SF-268 CNS
SF-295 CNS = tested on: SF-295 CNS
SF-539 CNS = tested on: SF-539 CNS
SK-MEL-2 melanoma = tested on: SK-MEL-2 melanoma
SK-MEL-28 melanoma = tested on: SK-MEL-28 melanoma
SK-MEL-5 melanoma = tested on: SK-MEL-5 melanoma
SK-OV-3 ovarian = tested on: SK-OV-3 ovarian
SN12C renal = tested on: SN12C renal
SNB-19 CNS = tested on: SNB-19 CNS
SW-620 colon = tested on: SW-620 colon
T-47D breast = tested on: T-47D breast
TK-10 renal = tested on: TK-10 renal
U251 CNS = tested on: U251 CNS
UACC-257 melanoma = tested on: UACC-257 melanoma
UACC-62 melanoma = tested on: UACC-62 melanoma
UO-31 renal = tested on: UO-31 renal
RPMI-8226 leukemia = tested on: RPMI-8226 leukemia
SNB-75 CNS = tested on: SNB-75 CNS
SR leukemia = tested on: SR leukemia

## Cc1ccc(S(=O)(=O)N/N=C2\CC3C4C=CC3C2C4)cc1 (centres undefined)
786-0 renal
  TGI: > 100 µM
A498 renal
  TGI: > 100 µM
A549 NSCLC
  TGI: > 100 µM
ACHN renal
  TGI: > 100 µM
CAKI-1 renal
  TGI: > 100 µM
CCRF-CEM leukemia
  TGI: > 100 µM
COLO 205 colon
  TGI: > 100 µM
DU-145 prostate
  TGI: > 100 µM
EKVX NSCLC
  TGI: > 100 µM
HCC-2998 colon
  TGI: > 100 µM
HCT-116 colon
  TGI: > 100 µM
HCT-15 colon
  TGI: > 100 µM
HL-60(TB) leukemia
  TGI: > 100 µM
HOP-62 NSCLC
  TGI: > 100 µM
HOP-92 NSCLC
  TGI: > 100 µM
HS 578T breast
  TGI: > 100 µM
HT29 colon
  TGI: > 100 µM
IGROV1 ovarian
  TGI: > 100 µM
K-562 leukemia
  TGI: > 100 µM
KM12 colon
  TGI: > 100 µM
LOX IMVI melanoma
  TGI: > 100 µM
M14 melanoma
  TGI: > 100 µM
MALME-3M melanoma
  TGI: > 100 µM
MCF7 breast
  TGI: > 100 µM
MDA-MB-231 breast
  TGI: > 100 µM
MDA-MB-435
  TGI: > 100 µM
MDA-N
  TGI: > 100 µM
MOLT-4 leukemia
  TGI: > 100 µM
NCI-H226 lung
  TGI: > 100 µM
NCI-H23 lung
  TGI: > 100 µM
NCI-H460 lung
  TGI: > 100 µM
NCI-H522 lung
  TGI: > 100 µM
NCI/ADR-RES ovarian
  TGI: > 100 µM
OVCAR-3 ovarian
  TGI: > 100 µM
OVCAR-4 ovarian
  TGI: > 100 µM
OVCAR-5 ovarian
  TGI: > 100 µM
OVCAR-8 ovarian
  TGI: > 100 µM
PC-3 prostate
  TGI: > 100 µM
RXF 393 renal
  TGI: > 100 µM
SF-268 CNS
  TGI: > 100 µM
SF-295 CNS
  TGI: > 100 µM
SF-539 CNS
  TGI: > 100 µM
SK-MEL-2 melanoma
  TGI: > 100 µM
SK-MEL-28 melanoma
  TGI: > 100 µM
SK-MEL-5 melanoma
  TGI: > 100 µM
SK-OV-3 ovarian
  TGI: > 100 µM
SN12C renal
  TGI: > 100 µM
SNB-19 CNS
  TGI: > 100 µM
SW-620 colon
  TGI: > 100 µM
T-47D breast
  TGI: > 100 µM
TK-10 renal
  TGI: > 100 µM
U251 CNS
  TGI: > 100 µM
UACC-257 melanoma
  TGI: > 100 µM
UACC-62 melanoma
  TGI: > 100 µM
UO-31 renal
  TGI: 40.2 µM

## CC(C)[C@]12O[C@H]1[C@@H]1O[C@@]13[C@@]1(C)CCC4=C(COC4=O)[C@@H]1C[C@@H]1O[C@@]13C2=O
A498 renal
  TGI: 0.0685 µM
A549 NSCLC
  TGI: > 100 µM
CCRF-CEM leukemia
  TGI: > 100 µM
COLO 205 colon
  TGI: 0.025 µM
DU-145 prostate
  TGI: > 28.9 µM
HCT-116 colon
  TGI: > 100 µM
HCT-15 colon
  TGI: > 100 µM
HL-60(TB) leukemia
  TGI: 0.0249 µM
HOP-62 NSCLC
  TGI: 0.115 µM
HOP-92 NSCLC
  TGI: 0.0829 µM
HS 578T breast
  TGI: 0.0882 µM
HT29 colon
  TGI: > 100 µM
IGROV1 ovarian
  TGI: > 100 µM
K-562 leukemia
  TGI: > 100 µM
KM12 colon
  TGI: > 22.6 µM
LOX IMVI melanoma
  TGI: > 100 µM
M14 melanoma
  TGI: 0.0493 µM
MALME-3M melanoma
  TGI: 0.0541 µM
MCF7 breast
  TGI: > 100 µM
MDA-MB-231 breast
  TGI: 0.834 µM
MDA-MB-435
  TGI: 0.0264 µM
MDA-N
  TGI: 0.0265 µM
MOLT-4 leukemia
  TGI: 0.3 µM
NCI-H23 lung
  TGI: < 0.0276 µM
NCI-H460 lung
  TGI: > 100 µM
NCI-H522 lung
  TGI: 0.328 µM
NCI/ADR-RES ovarian
  TGI: > 53.2 µM
OVCAR-4 ovarian
  TGI: 0.0621 µM
OVCAR-5 ovarian
  TGI: > 100 µM
OVCAR-8 ovarian
  TGI: > 100 µM
PC-3 prostate
  TGI: 2.11 µM
RPMI-8226 leukemia
  TGI: 0.063 µM
RXF 393 renal
  TGI: < 0.0158 µM
SF-268 CNS
  TGI: 0.522 µM
SF-295 CNS
  TGI: > 100 µM
SF-539 CNS
  TGI: 0.0428 µM
SK-MEL-2 melanoma
  TGI: 0.0151 µM
SK-MEL-28 melanoma
  TGI: 0.0397 µM
SK-MEL-5 melanoma
  TGI: 0.0309 µM
SK-OV-3 ovarian
  TGI: > 100 µM
SN12C renal
  TGI: > 100 µM
SNB-19 CNS
  TGI: > 40.9 µM
SNB-75 CNS
  TGI: 0.0444 µM
SW-620 colon
  TGI: > 42.1 µM
T-47D breast
  TGI: > 100 µM
TK-10 renal
  TGI: > 100 µM
U251 CNS
  TGI: > 78.7 µM
UACC-257 melanoma
  TGI: 0.0669 µM
UACC-62 melanoma
  TGI: 0.0312 µM
UO-31 renal
  TGI: > 100 µM

## Clc1ccccc1/C=C\C1(c2ccccc2)OCCO1
786-0 renal
  TGI: 31.1 µM
A498 renal
  TGI: 35.8 µM
A549 NSCLC
  TGI: > 100 µM
ACHN renal
  TGI: 31.4 µM
CAKI-1 renal
  TGI: 31.3 µM
CCRF-CEM leukemia
  TGI: 53.8 µM
COLO 205 colon
  TGI: 40.2 µM
DU-145 prostate
  TGI: 30.3 µM
EKVX NSCLC
  TGI: 36 µM
HCC-2998 colon
  TGI: 31.9 µM
HCT-116 colon
  TGI: 25.2 µM
HCT-15 colon
  TGI: 26.3 µM
HL-60(TB) leukemia
  TGI: 73.9 µM
HOP-62 NSCLC
  TGI: 39.8 µM
HOP-92 NSCLC
  TGI: > 100 µM
HS 578T breast
  TGI: 35.1 µM
HT29 colon
  TGI: 33.2 µM
IGROV1 ovarian
  TGI: 29.9 µM
K-562 leukemia
  TGI: > 100 µM
KM12 colon
  TGI: 23.7 µM
LOX IMVI melanoma
  TGI: 23.7 µM
M14 melanoma
  TGI: > 100 µM
MCF7 breast
  TGI: 7.53 µM
MDA-MB-231 breast
  TGI: 26.2 µM
MDA-MB-435
  TGI: 29.6 µM
MDA-N
  TGI: 30.2 µM
MOLT-4 leukemia
  TGI: 73.4 µM
NCI-H226 lung
  TGI: 44.3 µM
NCI-H23 lung
  TGI: 22.1 µM
NCI-H460 lung
  TGI: 32.7 µM
NCI-H522 lung
  TGI: 29.3 µM
NCI/ADR-RES ovarian
  TGI: 31.5 µM
OVCAR-3 ovarian
  TGI: 31.6 µM
OVCAR-4 ovarian
  TGI: 33 µM
OVCAR-5 ovarian
  TGI: 44.4 µM
OVCAR-8 ovarian
  TGI: 34.3 µM
RPMI-8226 leukemia
  TGI: 23.1 µM
RXF 393 renal
  TGI: 34.5 µM
SF-268 CNS
  TGI: 29.2 µM
SF-295 CNS
  TGI: 31.2 µM
SF-539 CNS
  TGI: 53.3 µM
SK-MEL-28 melanoma
  TGI: 38 µM
SK-MEL-5 melanoma
  TGI: 38.6 µM
SK-OV-3 ovarian
  TGI: 91.3 µM
SN12C renal
  TGI: 32.7 µM
SNB-75 CNS
  TGI: 34.3 µM
SR leukemia
  TGI: 28.9 µM
SW-620 colon
  TGI: 43.3 µM
T-47D breast
  TGI: 43.4 µM
TK-10 renal
  TGI: 48.4 µM
U251 CNS
  TGI: 24.8 µM
UACC-257 melanoma
  TGI: 31.7 µM
UACC-62 melanoma
  TGI: 29.5 µM
UO-31 renal
  TGI: > 100 µM
